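Exposure lasted 48 hours, with cells grown in 96-well plates and compounds tested at five concentrations. The concentration for 50% growth inhibition is given as GI50.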 Activity calls are given as the source filed them. No stated cut-off is given here; in the data, active = GI50 up to about 1.1 µM and inactive = higher.
What was measured:
Assay in all cases: DTP human tumour cell line panel, 48 h
[1] = tested on: ACHN
[2] = tested on: BT-549
[3] = tested on: CAKI-1
[4] = tested on: EKVX
[5] = tested on: HCC 2998
[6] = tested on: HCT-116
[7] = tested on: HOP-92
[8] = tested on: Hs-578T
[9] = tested on: K562
[10] = tested on: LOX IMVI
[11] = tested on: NCI-H226
[12] = tested on: NCI-H460
[13] = tested on: OVCAR-5
[14] = tested on: OVCAR-8
[15] = tested on: SF-268
[16] = tested on: SK-OV-3
[17] = tested on: SN12C
[18] = tested on: SR
[19] = tested on: TK-10
[20] = tested on: HL-60

SMILES | GI50 [1] | GI50 [2] | GI50 [3] | GI50 [4] | GI50 [5] | GI50 [6] | GI50 [7] | GI50 [8] | GI50 [9] | GI50 [10] | GI50 [11] | GI50 [12] | GI50 [13] | GI50 [14] | GI50 [15] | GI50 [16] | GI50 [17] | GI50 [18] | GI50 [19] | GI50 [20]
CC(=O)N1C(C(=O)NN2CCOCC2)CSC1c1ccccc1 (stereo not drawn) | > 100 µM (inactive) | > 100 µM (inactive) | > 100 µM (inactive) | > 100 µM (inactive) | > 100 µM (inactive) | > 100 µM (inactive) | > 100 µM (inactive) | > 100 µM (inactive) | > 100 µM (inactive) | > 100 µM (inactive) | > 100 µM (inactive) | > 100 µM (inactive) | > 100 µM (inactive) | > 100 µM (inactive) | > 100 µM (inactive) | > 100 µM (inactive) | > 100 µM (inactive) | > 100 µM (inactive) | > 100 µM (inactive) | 
O=c1oc2ccccc2cc1-c1cn2ccccc2n1 | 3.49 µM (inactive) | 11.9 µM (inactive) | 5.75 µM (inactive) | 11.4 µM (inactive) | 20.1 µM (inactive) | 10.1 µM (inactive) | 16.6 µM (inactive) | 4.5 µM (inactive) | 10.2 µM (inactive) | 12.6 µM (inactive) | 8.43 µM (inactive) | 4.16 µM (inactive) | 21.7 µM (inactive) | 3.21 µM (inactive) | 2.96 µM (inactive) | 4.01 µM (inactive) | 4.6 µM (inactive) | 3.85 µM (inactive) | 8.02 µM (inactive) | 
CCC1=NC(C(F)(F)F)(C(F)(F)F)N=C(/N=C(/N)N(C)C(C(C)C)P(=O)(OC(C)C)OC(C)C)O1 (stereo not drawn) | > 100 µM (inactive) | > 100 µM (inactive) | > 100 µM (inactive) | > 100 µM (inactive) | > 100 µM (inactive) | > 100 µM (inactive) |  | > 100 µM (inactive) | > 100 µM (inactive) | > 100 µM (inactive) | > 100 µM (inactive) | > 100 µM (inactive) | > 100 µM (inactive) | > 100 µM (inactive) | > 100 µM (inactive) | > 100 µM (inactive) | > 100 µM (inactive) | > 100 µM (inactive) | > 100 µM (inactive) | > 100 µM (inactive)
CN(Cc1cnc2nc(N)nc(N)c2n1)c1ccc(C(=O)NC(CCC(=O)NC(CC(P(=O)(O)O)P(=O)(O)O)C(=O)O)C(=O)O)cc1 (stereo not drawn) | > 100 µM (inactive) | > 100 µM (inactive) |  | > 100 µM (inactive) |  | > 100 µM (inactive) | > 100 µM (inactive) | > 100 µM (inactive) |  | > 100 µM (inactive) | > 100 µM (inactive) | > 100 µM (inactive) | > 100 µM (inactive) | > 100 µM (inactive) | > 100 µM (inactive) | > 100 µM (inactive) | > 100 µM (inactive) | > 100 µM (inactive) | > 100 µM (inactive) | 
Cc1c(-c2ccccc2)c(C#N)c2nnc(C(N)=O)c(N)n12 | > 100 µM (inactive) | > 100 µM (inactive) | > 100 µM (inactive) | > 100 µM (inactive) | > 100 µM (inactive) | > 100 µM (inactive) |  | > 100 µM (inactive) | > 100 µM (inactive) | > 100 µM (inactive) |  | > 100 µM (inactive) | > 100 µM (inactive) | > 100 µM (inactive) | > 100 µM (inactive) | 70.5 µM (inactive) | > 100 µM (inactive) | > 100 µM (inactive) | > 100 µM (inactive) | > 100 µM (inactive)
O=S(=O)(O)c1ccc(NN(c2c(O)ccc3ccccc23)S(=O)(=O)O)cc1 | > 100 µM (inactive) | > 100 µM (inactive) | > 100 µM (inactive) | > 100 µM (inactive) | > 100 µM (inactive) | > 100 µM (inactive) |  | > 100 µM (inactive) | > 100 µM (inactive) | > 100 µM (inactive) | > 100 µM (inactive) | > 100 µM (inactive) | > 100 µM (inactive) | > 100 µM (inactive) | > 100 µM (inactive) | > 100 µM (inactive) | > 100 µM (inactive) | > 100 µM (inactive) | > 100 µM (inactive) | > 100 µM (inactive)
CSc1nc(NC(C)C)c2c(n1)Sc1nc3ccccc3n1C2O (stereo not drawn) | 7.93 µM (inactive) | 6.79 µM (inactive) | 82.4 µM (inactive) | 11.5 µM (inactive) | 5.55 µM (inactive) | 4.13 µM (inactive) | 89.5 µM (inactive) | 2.79 µM (inactive) | 3.15 µM (inactive) | 7 µM (inactive) |  |  |  | 4.9 µM (inactive) | 4.43 µM (inactive) | 5.28 µM (inactive) | 9.57 µM (inactive) | 2.84 µM (inactive) | 14.3 µM (inactive) | 
Cc1ccccc1OC(C)C(=O)NN1C(=O)CC(=O)N(c2ccccc2)C1=S (stereo not drawn) | 53.8 µM (inactive) | > 100 µM (inactive) | > 100 µM (inactive) | 75.7 µM (inactive) | 70.8 µM (inactive) | 33.4 µM (inactive) | 37.3 µM (inactive) | > 100 µM (inactive) | 41.4 µM (inactive) | 54.3 µM (inactive) | 41.9 µM (inactive) | 45.8 µM (inactive) | > 100 µM (inactive) | 56.6 µM (inactive) | 76.6 µM (inactive) | > 100 µM (inactive) | 43.7 µM (inactive) |  | 63 µM (inactive) | 10.4 µM (inactive)
COc1ccc(CN2C[C@H]3[C@@H](CC(=O)O[C@H]3C)CC2=O)cc1 | > 100 µM (inactive) | > 100 µM (inactive) | > 100 µM (inactive) | > 100 µM (inactive) | > 100 µM (inactive) | > 100 µM (inactive) | > 100 µM (inactive) | > 100 µM (inactive) | > 100 µM (inactive) |  |  | > 100 µM (inactive) | > 100 µM (inactive) | > 100 µM (inactive) | > 100 µM (inactive) | > 100 µM (inactive) |  | > 100 µM (inactive) |  | 
C/C1=C/C[C@@H](/C(C)=C/c2csc(C)n2)OC(=O)C[C@H](O)C(C)(C)C(=O)[C@H](C)[C@@H](O)[C@@H](C)CCC1 [EPOTHILONE D] | < 0.0001 µM (active) | < 0.0001 µM (active) | < 0.0001 µM (active) | < 0.0001 µM (active) | < 0.0001 µM (active) | < 0.0001 µM (active) | 0.141 µM (active) | < 0.0001 µM (active) | < 0.0001 µM (active) | < 0.0001 µM (active) | < 0.0001 µM (active) | < 0.0001 µM (active) | < 0.0001 µM (active) | < 0.0001 µM (active) | < 0.0001 µM (active) | < 0.0001 µM (active) | < 0.0001 µM (active) | < 0.0001 µM (active) | 0.000192 µM (active) | 
Cn1c2ccccc2c(=NNc2cccc(C(=O)O)c2)c2ccccc21 | 5.85 µM (inactive) | 7.59 µM (inactive) | 25.1 µM (inactive) | 5.57 µM (inactive) | 3.3 µM (inactive) | 4.89 µM (inactive) | 14.8 µM (inactive) | 17.8 µM (inactive) | 3.37 µM (inactive) | 5.05 µM (inactive) | 12.1 µM (inactive) | 4.86 µM (inactive) | 14.4 µM (inactive) | 5.77 µM (inactive) | 10.9 µM (inactive) | 14.8 µM (inactive) | 6.55 µM (inactive) |  | 15.5 µM (inactive) | 11.3 µM (inactive)

Source: ChEMBL document CHEMBL1201862, “PubChem BioAssay data set” (2004)
